Reference: the NIST ThermoML archive (doi:10.1021/je800747v)

Assay: xn = mol fraction of the nth substance listed
Details: 101 kPa, Liquid, Optical method

## [Cl-].[K+] [potassium chloride] + O
298.15 K, x1 = 0
  binary diffusion coefficient: 1.86e-09 m2/s

## COCCOCCOC [2,5,8-trioxanonane] + CCCCCCC
276.64 K, x1 = 0
  binary diffusion coefficient: 9.42e-10 m2/s
277.73 K, x1 = 0
  binary diffusion coefficient: 9.48e-10 m2/s
281.59 K, x1 = 0
  binary diffusion coefficient: 9.51e-10 m2/s
284.32 K, x1 = 0
  binary diffusion coefficient: 9.58e-10 m2/s
287.28 K, x1 = 0
  binary diffusion coefficient: 9.76e-10 m2/s
289.59 K, x1 = 0
  binary diffusion coefficient: 9.87e-10 m2/s
292.83 K, x1 = 0
  binary diffusion coefficient: 1e-09 m2/s
294.95 K, x1 = 0
  binary diffusion coefficient: 1.02e-09 m2/s
296.37 K, x1 = 0
  binary diffusion coefficient: 1.05e-09 m2/s
298.46 K, x1 = 0
  binary diffusion coefficient: 1.07e-09 m2/s
301.29 K, x1 = 0
  binary diffusion coefficient: 1.08e-09 m2/s
304.98 K, x1 = 0
  binary diffusion coefficient: 1.12e-09 m2/s
306.86 K, x1 = 0
  binary diffusion coefficient: 1.14e-09 m2/s
310.67 K, x1 = 0
  binary diffusion coefficient: 1.18e-09 m2/s
312.41 K, x1 = 0
  binary diffusion coefficient: 1.23e-09 m2/s
316.09 K, x1 = 0
  binary diffusion coefficient: 1.26e-09 m2/s
319.27 K, x1 = 0
  binary diffusion coefficient: 1.31e-09 m2/s
322.81 K, x1 = 0
  binary diffusion coefficient: 1.37e-09 m2/s
325.36 K, x1 = 0
  binary diffusion coefficient: 1.43e-09 m2/s
328.78 K, x1 = 0
  binary diffusion coefficient: 1.48e-09 m2/s
332.63 K, x1 = 0
  binary diffusion coefficient: 1.53e-09 m2/s

## COCCOC [1,2-dimethoxyethane] + CCCCCCC
276.64 K, x1 = 0
  binary diffusion coefficient: 5.24e-09 m2/s
277.73 K, x1 = 0
  binary diffusion coefficient: 5.28e-09 m2/s
281.59 K, x1 = 0
  binary diffusion coefficient: 5.31e-09 m2/s
284.32 K, x1 = 0
  binary diffusion coefficient: 5.35e-09 m2/s
287.28 K, x1 = 0
  binary diffusion coefficient: 5.4e-09 m2/s
289.59 K, x1 = 0
  binary diffusion coefficient: 5.44e-09 m2/s
292.83 K, x1 = 0
  binary diffusion coefficient: 5.51e-09 m2/s
294.95 K, x1 = 0
  binary diffusion coefficient: 5.57e-09 m2/s
296.37 K, x1 = 0
  binary diffusion coefficient: 5.63e-09 m2/s
298.46 K, x1 = 0
  binary diffusion coefficient: 5.69e-09 m2/s
301.29 K, x1 = 0
  binary diffusion coefficient: 5.79e-09 m2/s
304.98 K, x1 = 0
  binary diffusion coefficient: 5.89e-09 m2/s
306.86 K, x1 = 0
  binary diffusion coefficient: 5.98e-09 m2/s
310.67 K, x1 = 0
  binary diffusion coefficient: 6.13e-09 m2/s
312.41 K, x1 = 0
  binary diffusion coefficient: 6.3e-09 m2/s
316.09 K, x1 = 0
  binary diffusion coefficient: 6.48e-09 m2/s
319.27 K, x1 = 0
  binary diffusion coefficient: 6.62e-09 m2/s
322.81 K, x1 = 0
  binary diffusion coefficient: 6.79e-09 m2/s
325.36 K, x1 = 0
  binary diffusion coefficient: 6.94e-09 m2/s
328.78 K, x1 = 0
  binary diffusion coefficient: 7.3e-09 m2/s
332.63 K, x1 = 0
  binary diffusion coefficient: 7.59e-09 m2/s

## CCCCCCC [heptane] + CCO
276.64 K, x2 = 0
  binary diffusion coefficient: 7.57e-09 m2/s
277.73 K, x2 = 0
  binary diffusion coefficient: 7.61e-09 m2/s
281.59 K, x2 = 0
  binary diffusion coefficient: 7.64e-09 m2/s
284.32 K, x2 = 0
  binary diffusion coefficient: 7.7e-09 m2/s
287.28 K, x2 = 0
  binary diffusion coefficient: 7.75e-09 m2/s
289.59 K, x2 = 0
  binary diffusion coefficient: 7.79e-09 m2/s
292.83 K, x2 = 0
  binary diffusion coefficient: 7.84e-09 m2/s
294.95 K, x2 = 0
  binary diffusion coefficient: 7.9e-09 m2/s
296.37 K, x2 = 0
  binary diffusion coefficient: 7.94e-09 m2/s
298.46 K, x2 = 0
  binary diffusion coefficient: 8.07e-09 m2/s
301.29 K, x2 = 0
  binary diffusion coefficient: 8.19e-09 m2/s
304.98 K, x2 = 0
  binary diffusion coefficient: 8.22e-09 m2/s
306.86 K, x2 = 0
  binary diffusion coefficient: 8.37e-09 m2/s
310.67 K, x2 = 0
  binary diffusion coefficient: 8.47e-09 m2/s
312.41 K, x2 = 0
  binary diffusion coefficient: 8.58e-09 m2/s
316.09 K, x2 = 0
  binary diffusion coefficient: 8.71e-09 m2/s
319.27 K, x2 = 0
  binary diffusion coefficient: 8.91e-09 m2/s
322.81 K, x2 = 0
  binary diffusion coefficient: 9.17e-09 m2/s
325.36 K, x2 = 0
  binary diffusion coefficient: 9.22e-09 m2/s
328.78 K, x2 = 0
  binary diffusion coefficient: 9.36e-09 m2/s
332.63 K, x2 = 0
  binary diffusion coefficient: 9.5e-09 m2/s
